Here are results for 14 molecules from patent US20240409585A1, “MACROCYCLIC IMMUNOMODULATORS” (priority 2021, published 2024).

This experiment addresses T1, PE-labeled human PD-L1-Ig binding to Jurkat cell line over-expressing human PD-1 (Jurkat-PD-1) (Homo sapiens, UniProt Q15116).
T1 construct: expressed in transfected cells; host or cells: Jurkat
Nature of the experiment: Jurkat-PD-1 Cell Binding High-Content Screening Assay (CBA): Method 1. As to conditions: Jurkat-hPD-1 cells, PE-labeled PD-L1-Ig 20 nM final.

The mark [1] stands for this setting: read-out: Jurkat HPDL1 PD1 IC50 (uM) (Method 1).

Read-outs that look alike come from different tables or passages of the source. Bridge positions count the residues as written; N and C are the ends. Square brackets hold non-standard residues; d marks the D form. Peptide text beside a SMILES is read from it. * marks the point of attachment. Phe(4-NO2) = N[C@@H](Cc1ccc([N+](=O)[O-])cc1)C(=O)O; Phe(3-CF3) = N[C@@H](Cc1cccc(C(F)(F)F)c1)C(=O)O; Ala(morpholin-4-yl) = N[C@@H](CN1CCOCC1)C(=O)O; Phe(4-COOH) = N[C@@H](Cc1ccc(C(=O)O)cc1)C(=O)O; Bip = N[C@@H](Cc1ccc(-c2ccccc2)cc1)C(=O)O; Phe(3-CN) = N#Cc1cccc(C[C@H](N)C(=O)O)c1; Phe(3-OMe) = COc1cccc(C[C@H](N)C(=O)O)c1; Phe(3-Me) = Cc1cccc(C[C@H](N)C(=O)O)c1; Val(3-OH) = CC(C)(O)[C@H](N)C(=O)O; 3Pal = N[C@@H](Cc1cccnc1)C(=O)O; Cha = N[C@@H](CC1CCCCC1)C(=O)O; Cit = NC(=O)NCCC[C@H](N)C(=O)O; Carboxymethyl = O=C(O)C*; NMeA = CN[C@@H](C)C(=O)O; Orn = NCCC[C@H](N)C(=O)O; Pra = C#CC[C@H](N)C(=O)O; Dab = NCC[C@H](N)C(=O)O; Dap = NC[C@H](N)C(=O)O

The term IC50 denotes the concentration that inhibits the measured activity by half.

T1 sequence (Q15116 25-288): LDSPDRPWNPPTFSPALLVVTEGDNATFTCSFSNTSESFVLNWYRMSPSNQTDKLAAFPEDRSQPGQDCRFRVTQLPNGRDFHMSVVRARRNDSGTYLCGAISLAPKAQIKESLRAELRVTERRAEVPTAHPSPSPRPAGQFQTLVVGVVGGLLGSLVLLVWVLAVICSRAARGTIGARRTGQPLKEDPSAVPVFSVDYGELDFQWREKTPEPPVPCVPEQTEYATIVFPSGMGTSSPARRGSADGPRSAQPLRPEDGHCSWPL

Regarding `CC(C)C[C@@H]1NC(=O)[C@H](CCN)NC(=O)[C@@H](CC(C)C)NC(=O)[C@H](C)N(C)C(=O)[C@H](CCCNC(=N)N)NC(=O)[C@H](Cc2ccc(-c3ccccc3)cc2)NC(=O)[C@H](C(C)C)NC(=O)[C@H](Cc2c[nH]c3ccccc23)NC(=O)[C@H](CC(=O)O)NC(=O)[C@H](Cc2ccc(O)cc2)NC(=O)[C@H](CCN)NC(=O)CSC[C@@H](C(=O)N[C@@H](C)C(N)=O)NC(=O)[C@H]([C@@H](C)O)NC(=O)[C@H](C(C)C)NC1=O` [Compound 1340] ({CH2CO}-[Dab]YDWV[Bip]R[NMeA][dL][Dab]LVTCA-NH2; thioether N-14), the 50% inhibitory concentration (IC50) under setting [1] was 0.02 µM.
Take `CC(C)C[C@@H]1NC(=O)[C@H](CCN)NC(=O)[C@@H](CC(C)C)NC(=O)[C@H](C)N(C)C(=O)[C@H](Cc2cnc[nH]2)NC(=O)[C@H](Cc2ccc(-c3ccccc3)cc2)NC(=O)[C@H](C(C)C)NC(=O)[C@H](Cc2c[nH]c3ccccc23)NC(=O)[C@H](CC(=O)O)NC(=O)[C@H](Cc2cccc(C#N)c2)NC(=O)[C@H](CN)NC(=O)CSC[C@@H](C(=O)N[C@@H](C)C(N)=O)NC(=O)[C@H]([C@@H](C)O)NC(=O)[C@H](C(C)C)NC1=O` [Compound 1432] ({CH2CO}-[Dap][Phe(3-CN)]DWV[Bip]H[NMeA][dL][Dab]LVTCA-NH2; thioether N-14): the IC50 under setting [1] is 0.05 µM.
Still for that read-out and setting: for `CC(C)C[C@@H]1NC(=O)[C@H](CCN)NC(=O)[C@@H](CC(C)C)NC(=O)[C@H](C)N(C)C(=O)[C@H](C(C)C)NC(=O)[C@H](Cc2ccc(-c3ccccc3)cc2)NC(=O)[C@H](C(C)C)NC(=O)[C@H](Cc2c[nH]c3ccccc23)NC(=O)[C@H](CC(=O)O)NC(=O)[C@H](Cc2ccc(OCC(=O)O)cc2)NC(=O)[C@H](Cc2ccc(OCC(=O)O)cc2)NC(=O)CSC[C@@H](C(=O)N[C@@H](C)C(N)=O)NC(=O)[C@H]([C@@H](C)O)NC(=O)[C@H](C(C)C)NC1=O` [Compound 1567] ({CH2CO}-Y(Carboxymethyl)Y(Carboxymethyl)DWV[Bip]V[NMeA][dL][Dab]LVTCA-NH2; thioether N-14) the value was 0.02 µM; for `CC(C)C[C@@H]1NC(=O)[C@H](CCN)NC(=O)[C@@H](CC(C)C)NC(=O)[C@H](C)N(C)C(=O)[C@H](CCCNC(=N)N)NC(=O)[C@H](Cc2ccc(-c3ccccc3)cc2)NC(=O)[C@H](C(C)C)NC(=O)[C@H](Cc2c[nH]c3ccccc23)NC(=O)[C@H](CC(=O)O)NC(=O)[C@H](Cc2ccc(O)cc2)NC(=O)[C@H](Cc2ccc([N+](=O)[O-])cc2)NC(=O)CSC[C@@H](C(=O)N[C@@H](C)C(N)=O)NC(=O)[C@H]([C@@H](C)O)NC(=O)[C@H](C(C)C)NC1=O` [Compound 1187] ({CH2CO}-[Phe(4-NO2)]YDWV[Bip]R[NMeA][dL][Dab]LVTCA-NH2; thioether N-14), 0.05 µM.
For `CC(C)C[C@@H]1NC(=O)[C@H](CCN)NC(=O)[C@@H](CC(C)C)NC(=O)[C@H](C)N(C)C(=O)[C@H](C(C)C)NC(=O)[C@H](Cc2ccc(-c3ccccc3)cc2)NC(=O)[C@H](C(C)C)NC(=O)[C@H](Cc2c[nH]c3ccccc23)NC(=O)[C@H](CC(=O)O)NC(=O)[C@H](Cc2ccc(OCC(=O)O)cc2)NC(=O)[C@H](CC(N)=O)NC(=O)CSC[C@@H](C(=O)N[C@@H](C)C(N)=O)NC(=O)[C@H]([C@@H](C)O)NC(=O)[C@H](C(C)C)NC1=O` [Compound 1377] ({CH2CO}-NY(Carboxymethyl)DWV[Bip]V[NMeA][dL][Dab]LVTCA-NH2; thioether N-14), the concentration for half-maximal inhibition (IC50) under setting [1] is 0.02 µM.
`Cc1cccc(C[C@@H]2NC(=O)[C@H](CC(=O)O)NC(=O)[C@H](Cc3ccc(O)cc3)NC(=O)[C@H](CC(N)=O)NC(=O)CSC[C@@H](C(=O)N[C@@H](CCN)C(N)=O)NC(=O)[C@H]([C@@H](C)O)NC(=O)[C@H](C(C)(C)O)NC(=O)[C@H](CC3CCCCC3)NC(=O)[C@H](CCN)NC(=O)[C@@H](CC(C)C)NC(=O)[C@H](C)N(C)C(=O)[C@H](CCCNC(N)=O)NC(=O)[C@H](Cc3ccc(-c4ccccc4)cc3)NC(=O)[C@H](C(C)C)NC2=O)c1` [Compound 1701] ({CH2CO}-NYD[Phe(3-Me)]V[Bip][Cit][NMeA][dL][Dab][Cha][Val(3-OH)]TC[Dab]-NH2; thioether N-14): the concentration for half-maximal inhibition (IC50) under setting [1] stood at 0.01 µM.
Regarding `COc1cccc(C[C@@H]2NC(=O)[C@H](CC(=O)O)NC(=O)[C@H](Cc3ccc(C(=O)O)cc3)NC(=O)[C@H](CN)NC(=O)CSC[C@@H](C(=O)N[C@@H](C)C(N)=O)NC(=O)[C@H]([C@@H](C)O)NC(=O)[C@H](C(C)C)NC(=O)[C@H](CC(C)C)NC(=O)[C@H](CCN)NC(=O)[C@@H](CC(C)C)NC(=O)[C@H](C)N(C)C(=O)[C@H](CCCNC(=N)N)NC(=O)[C@H](Cc3ccc(-c4ccccc4)cc3)NC(=O)[C@H](C(C)C)NC2=O)c1` [Compound 1460] ({CH2CO}-[Dap][Phe(4-COOH)]D[Phe(3-OMe)]V[Bip]R[NMeA][dL][Dab]LVTCA-NH2; thioether N-14), the IC50 under setting [1] amounted to 0.02 µM.
Turning to `COc1cccc(C[C@@H]2NC(=O)[C@H](CN)NC(=O)CSC[C@@H](C(=O)N[C@@H](C)C(N)=O)NC(=O)[C@H]([C@@H](C)O)NC(=O)[C@H](C(C)C)NC(=O)[C@H](CC(C)C)NC(=O)[C@H](CCN)NC(=O)[C@@H](CC(C)C)NC(=O)[C@H](C)N(C)C(=O)[C@H](CCCNC(=N)N)NC(=O)[C@H](Cc3ccc(-c4ccccc4)cc3)NC(=O)[C@H](C(C)C)NC(=O)[C@H](Cc3c[nH]c4ccccc34)NC(=O)[C@H](CC(=O)O)NC2=O)c1` [Compound 1453] ({CH2CO}-[Dap][Phe(3-OMe)]DWV[Bip]R[NMeA][dL][Dab]LVTCA-NH2; thioether N-14), the IC50 under setting [1] was found to be 0.08 µM.
The same measure, in the same setting: with `C#CC[C@H](NC(=O)CNC(=O)[C@@H]1CSCC(=O)N[C@@H]([C@@H](C)O)C(=O)N[C@@H](Cc2ccc(OCC(=O)O)cc2)C(=O)N[C@@H](CC(=O)O)C(=O)N[C@@H](Cc2cccc(C)c2)C(=O)N[C@@H](Cc2ccc(OCC(=O)O)cc2)C(=O)N[C@@H](Cc2ccc(-c3ccccc3)cc2)C(=O)N[C@@H](Cc2ccc(OCC(=O)O)cc2)C(=O)N(C)[C@@H](C)C(=O)N[C@H](CC(C)C)C(=O)N[C@@H](CCN)C(=O)N[C@@H](CC2CCCCC2)C(=O)N[C@@H](C(C)(C)O)C(=O)N[C@@H](CCC(=O)O)C(=O)N1)C(=O)O` [Compound 1938] ({CH2CO}-TY(Carboxymethyl)D[Phe(3-Me)]Y(Carboxymethyl)[Bip]Y(Carboxymethyl)[NMeA][dL][Dab][Cha][Val(3-OH)]ECG[Pra]-OH; thioether N-14) the figure was 0.34 µM.
In turn, `CC(C)C[C@@H]1NC(=O)[C@H](CCN)NC(=O)[C@@H](CC(C)C)NC(=O)[C@H](C)N(C)C(=O)[C@H](CCCNC(=N)N)NC(=O)[C@H](Cc2ccc(-c3ccccc3)cc2)NC(=O)[C@H](C(C)C)NC(=O)[C@H](Cc2c[nH]c3ccccc23)NC(=O)[C@H](CC(=O)O)NC(=O)[C@H](Cc2ccc(O)cc2)NC(=O)[C@H](Cc2cccnc2)NC(=O)CSC[C@@H](C(=O)N[C@@H](C)C(N)=O)NC(=O)[C@H](CO)NC(=O)[C@H](C(C)C)NC1=O` [Compound 1034] ({CH2CO}-[3Pal]YDWV[Bip]R[NMeA][dL][Dab]LVSCA-NH2; thioether N-14) returned an IC50 (Jurkat HPDL1 PD1 IC50 (uM) (Method 1)) of 0.05 µM.
Consider `CC(C)C[C@H]1NC(=O)[C@H](C)N(C)C(=O)[C@H](CCC(N)=O)NC(=O)[C@H](Cc2ccc(-c3ccccc3)cc2)NC(=O)[C@H](Cc2ccc(C(=O)O)cc2)NC(=O)[C@H](Cc2cccc(C(F)(F)F)c2)NC(=O)[C@H](CC(=O)O)NC(=O)[C@H](Cc2ccc(OCC(=O)O)cc2)NC(=O)[C@H](CN2CCOCC2)NC(=O)CSC[C@@H](C(=O)N[C@@H](CCN)C(N)=O)NC(=O)[C@H](CCCN)NC(=O)[C@H](C(C)C)NC(=O)[C@H](CC2CCCCC2)NC(=O)[C@H](CCN)NC1=O` [Example 2272] ({CH2CO}-[Ala(morpholin-4-yl)]Y(Carboxymethyl)D[Phe(3-CF3)][Phe(4-COOH)][Bip]Q[NMeA][dL][Dab][Cha]V[Orn]C[Dab]-NH2; thioether N-14), for which the IC50 under setting [1] was determined as 0.11 µM.
Take `COc1cccc(C[C@@H]2NC(=O)[C@H](CN)NC(=O)CSC[C@@H](C(=O)N[C@@H](C)C(N)=O)NC(=O)[C@H]([C@@H](C)O)NC(=O)[C@H](C(C)C)NC(=O)[C@H](CC(C)C)NC(=O)[C@H](CCN)NC(=O)[C@@H](CC(C)C)NC(=O)[C@H](C)N(C)C(=O)[C@H](Cc3cnc[nH]3)NC(=O)[C@H](Cc3ccc(-c4ccccc4)cc3)NC(=O)[C@H](C(C)C)NC(=O)[C@H](Cc3c[nH]c4ccccc34)NC(=O)[C@H](CC(=O)O)NC2=O)c1` [Compound 1423] ({CH2CO}-[Dap][Phe(3-OMe)]DWV[Bip]H[NMeA][dL][Dab]LVTCA-NH2; thioether N-14): the 50% inhibitory concentration (IC50) under setting [1] was determined as 0.07 µM.
For the molecule `CC(C)C[C@@H]1NC(=O)[C@H](CCCNC(=N)N)NC(=O)[C@@H](CC(C)C)NC(=O)[C@H](C)N(C)C(=O)[C@H](CCCNC(N)=O)NC(=O)[C@H](Cc2ccc(-c3ccccc3)cc2)NC(=O)[C@H](C(C)C)NC(=O)[C@H](Cc2c[nH]c3ccccc23)NC(=O)[C@H](CC(=O)O)NC(=O)[C@H](Cc2ccc(O)cc2)NC(=O)[C@H](CC(N)=O)NC(=O)CSC[C@@H](C(=O)N[C@@H](CCC(=O)O)C(N)=O)NC(=O)[C@H](CO)NC(=O)[C@H](C(C)C)NC1=O` [Compound 1236] ({CH2CO}-NYDWV[Bip][Cit][NMeA][dL]RLVSCE-NH2; thioether N-14), the IC50 under setting [1] is 0.11 µM.
As for `Cc1cccc(C[C@@H]2NC(=O)[C@H](Cc3ccccc3)NC(=O)CSC[C@@H](C(=O)NCC(N)=O)NC(=O)[C@H](CO)NC(=O)[C@H](C(C)C)NC(=O)[C@H](CC(C)C)NC(=O)[C@H](CC(N)=O)NC(=O)[C@@H](CC(C)C)NC(=O)[C@H](C)N(C)C(=O)[C@H](C(C)C)NC(=O)[C@H](Cc3ccc(-c4ccccc4)cc3)NC(=O)[C@H](CC(C)C)NC(=O)[C@H](Cc3c[nH]c4ccccc34)NC(=O)[C@H](CC(=O)O)NC2=O)c1` [Compound 1518] ({CH2CO}-F[Phe(3-Me)]DWL[Bip]V[NMeA][dL]NLVSCG-NH2; thioether N-14), the IC50 under setting [1] worked out at 0.05 µM.
